In PubChem BioAssay (NCI) one finds GI50 and TGI data, which are given here for 8 molecules.

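Results reflect a 48-hour exposure of cells in 96-well plates to compound at five concentrations. GI50 = concentration required for 50% inhibition of growth. Definition used: TGI = concentration required for complete inhibition of growth.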

Test systems include IGROV1 ovarian; M14 melanoma; NCI-H226 lung; NCI-H460 lung; NCI-H522 lung; PC-3 prostate; RPMI-8226 leukemia; SNB-19 CNS; U251 CNS; UO-31 renal.
Assay in all cases: NCI tumour cell line growth inhibition, 48 h

For the molecule `CC(CN(C)C)S(=O)(=O)c1ccc(-c2cnc(N)c(C(=O)Nc3ccccc3)n2)cc1` (centres undefined), the GI50 is 3.15 µM in the test on IGROV1 ovarian; 4.06 µM with M14 melanoma; 12.9 µM in the test with NCI-H226 lung; 2.95 µM in the test on NCI-H460 lung; 17.5 µM in the test with NCI-H522 lung; 10.9 µM in the test with PC-3 prostate. Moreover, the GI50 with RPMI-8226 leukemia was 13.8 µM; in the test with SNB-19 CNS, 16.3 µM; with U251 CNS it was 4.17 µM; in the test on UO-31 renal, 4.78 µM. Further, the TGI in the test with IGROV1 ovarian is 36 µM; in the test on M14 melanoma it was 21.9 µM; in the test with NCI-H226 lung, 35.4 µM; in the test with NCI-H460 lung, 22.2 µM; with NCI-H522 lung it was 35.9 µM; in the test with PC-3 prostate, greater than 73.8 µM. In addition, the TGI with RPMI-8226 leukemia is 48.9 µM; in the test with SNB-19 CNS it was 75.1 µM; with U251 CNS, 30 µM; in the test with UO-31 renal, 28.7 µM.
Regarding `O=P(O)(O)OCC1OC(n2cnc3c(NCc4ccco4)ncnc32)C(O)C1O` (centres undefined), the GI50 in the test on IGROV1 ovarian was 1.39 µM; in the test on M14 melanoma it was 3.55 µM; in the test with NCI-H226 lung, 7.13 µM; in the test with NCI-H460 lung, 3.04 µM; with NCI-H522 lung, 1.14 µM; with PC-3 prostate, 0.927 µM. Besides, the GI50 was 0.298 µM with RPMI-8226 leukemia, 4.18 µM in the test on SNB-19 CNS, 4.33 µM in the test on U251 CNS and 0.993 µM with UO-31 renal. In addition, the TGI is greater than 41 µM with M14 melanoma; greater than 56.5 µM in the test on NCI-H226 lung; 21.4 µM with NCI-H460 lung; 19 µM with NCI-H522 lung; 12.3 µM with PC-3 prostate; 2.66 µM in the test with RPMI-8226 leukemia. Moreover, the TGI in the test on SNB-19 CNS was greater than 100 µM; in the test on U251 CNS it was greater than 100 µM; in the test on UO-31 renal it was greater than 26.5 µM.
Consider `Clc1ccccc1[C@@H]1C[C@@H]2Cc3cc(Br)c4ccccc4c3N1O2`, for which the GI50 was 10.4 µM with IGROV1 ovarian; 3.74 µM in the test with M14 melanoma; 3.65 µM in the test on NCI-H226 lung; 4.08 µM in the test with NCI-H460 lung; 2.31 µM with NCI-H522 lung; 5.85 µM in the test on PC-3 prostate. Moreover, the GI50 is 4.94 µM in the test with RPMI-8226 leukemia, 8.11 µM in the test with SNB-19 CNS, 3.65 µM in the test on U251 CNS and 6.05 µM in the test on UO-31 renal. Further, the TGI in the test on IGROV1 ovarian was greater than 100 µM; in the test on M14 melanoma, greater than 100 µM; in the test on NCI-H226 lung, greater than 100 µM; with NCI-H460 lung, greater than 100 µM; in the test on NCI-H522 lung it was 6.51 µM; in the test with PC-3 prostate, greater than 100 µM. Also, the TGI in the test on RPMI-8226 leukemia, in the test on SNB-19 CNS, in the test on U251 CNS and in the test on UO-31 renal was greater than 100 µM each time.
Consider `COc1ccc(C(C#N)=C2C=CC(=NO)C=C2)cc1`, for which the GI50 was 2.8 µM with IGROV1 ovarian; 6.09 µM in the test on M14 melanoma; 3.97 µM in the test with NCI-H226 lung; 3.17 µM in the test with NCI-H460 lung; 1.23 µM with NCI-H522 lung; 3.74 µM with PC-3 prostate. Also, the GI50 is 3.2 µM with RPMI-8226 leukemia, 16.1 µM in the test on SNB-19 CNS, 6.46 µM in the test with U251 CNS and 4.23 µM in the test with UO-31 renal. Besides, the TGI in the test on IGROV1 ovarian was 8 µM; in the test on M14 melanoma, 19.6 µM; in the test with NCI-H226 lung, 15.2 µM; in the test on NCI-H460 lung, 12 µM; in the test on NCI-H522 lung it was 3.41 µM; in the test on PC-3 prostate, 17.1 µM. For the same molecule, the TGI in the test on RPMI-8226 leukemia turned out to be 17.9 µM; in the test with SNB-19 CNS, 32.1 µM; in the test on U251 CNS, 19.4 µM; in the test on UO-31 renal, 14.6 µM.
Take `CCNc1cc2oc(=O)cc(C(F)(F)F)c2cc1C`: the TGI with IGROV1 ovarian, with M14 melanoma, in the test with NCI-H226 lung, in the test with NCI-H460 lung, in the test on NCI-H522 lung and in the test on PC-3 prostate was greater than 100 µM each time. Also, the TGI in the test with RPMI-8226 leukemia, in the test on SNB-19 CNS, in the test on U251 CNS and in the test on UO-31 renal was greater than 100 µM each time.
For the molecule `COc1cccc(Sc2ccc([N+](=O)[O-])c3no[n+]([O-])c23)c1`, the GI50 is 5.63 µM in the test with IGROV1 ovarian; 14.3 µM in the test with M14 melanoma; 18.2 µM in the test with NCI-H226 lung; 18.7 µM in the test on NCI-H460 lung; 1.98 µM with NCI-H522 lung; 16.9 µM in the test on PC-3 prostate. Besides, the GI50 in the test with RPMI-8226 leukemia is 3.67 µM; in the test with SNB-19 CNS it was 35 µM; with U251 CNS, 13.1 µM; in the test with UO-31 renal, 2.27 µM. Besides, the TGI in the test with IGROV1 ovarian was 20.8 µM; with M14 melanoma, 33.9 µM; with NCI-H226 lung, 53.5 µM; in the test on NCI-H460 lung, 40.8 µM; in the test on NCI-H522 lung, 3.93 µM; in the test on PC-3 prostate, greater than 54.5 µM. Besides, the TGI is 21 µM in the test with RPMI-8226 leukemia, greater than 88.3 µM in the test with SNB-19 CNS, 30.3 µM with U251 CNS and 7.74 µM in the test with UO-31 renal.
As to `O=c1cc(-c2ccccc2)oc2ccc(OC/C(=N/O)c3ccc(F)cc3)cc12`, the GI50 in the test on IGROV1 ovarian was 21.7 µM; with M14 melanoma, 4.48 µM; with NCI-H226 lung, 13.6 µM; in the test on NCI-H460 lung, 2.54 µM; in the test with NCI-H522 lung it was 4.68 µM; with PC-3 prostate, 2.72 µM. Further, the GI50 was 3 µM in the test on RPMI-8226 leukemia, 5.1 µM with SNB-19 CNS, 3.03 µM in the test with U251 CNS and 10.8 µM with UO-31 renal. Also, the TGI was greater than 50 µM with IGROV1 ovarian; greater than 50 µM in the test with M14 melanoma; greater than 50 µM in the test on NCI-H226 lung; 12.1 µM in the test with NCI-H460 lung; greater than 50 µM in the test with NCI-H522 lung; 12.3 µM in the test with PC-3 prostate. Besides, the TGI is 14.9 µM in the test on RPMI-8226 leukemia, greater than 50 µM with SNB-19 CNS, 43.7 µM in the test on U251 CNS and greater than 50 µM with UO-31 renal.
With `O=C(O)C1CCN(Cc2oc(CO)cc(=O)c2O)C1` (centres undefined), the TGI in the test with IGROV1 ovarian, with M14 melanoma, in the test on NCI-H226 lung, in the test on NCI-H460 lung, in the test on NCI-H522 lung and with PC-3 prostate was greater than 100 µM in each case. In addition, the TGI in the test with RPMI-8226 leukemia, in the test with SNB-19 CNS, in the test on U251 CNS and with UO-31 renal was greater than 100 µM throughout.
